# Legend:
# Type in all cases: functional
# [1] = tested on: CCRF-CEM; assay: Growth inhibition of human CCRF-CEM cells assessed as cell growth at 10 uM incubated for 48 hrs by sulforhodamine B assay relative to control; settings: read-out: Activity
# [2] = tested on: K562; assay: Growth inhibition of human K562 cells assessed as cell growth at 10 uM incubated for 48 hrs by sulforhodamine B assay relative to control; settings: K562, 48 h, read-out: Activity
# [3] = tested on: MOLT-4; assay: Growth inhibition of human MOLT4 cells assessed as cell growth at 10 uM incubated for 48 hrs by sulforhodamine B assay relative to control; settings: MOLT-4, 48 h, read-out: Activity
# [4] = tested on: RPMI-8226; assay: Growth inhibition of human RPMI8226 cells assessed as cell growth at 10 uM incubated for 48 hrs by sulforhodamine B assay relative to control; settings: RPMI-8226, 48 h, read-out: Activity
# [5] = tested on: SR; assay: Growth inhibition of human SR cells assessed as cell growth at 10 uM incubated for 48 hrs by sulforhodamine B assay relative to control; settings: read-out: Activity
# [6] = tested on: HOP-62; assay: Growth inhibition of human HOP62 cells assessed as cell growth at 10 uM incubated for 48 hrs by sulforhodamine B assay relative to control; settings: HOP-62, 48 h, read-out: Activity
# [7] = tested on: NCI-H226; assay: Growth inhibition of human NCI-H226 cells assessed as cell growth at 10 uM incubated for 48 hrs by sulforhodamine B assay relative to control; settings: NCI-H226, 48 h, read-out: Activity
# [8] = tested on: NCI-H322M; assay: Growth inhibition of human NCI-H322M cells assessed as cell growth at 10 uM incubated for 48 hrs by sulforhodamine B assay relative to control; settings: read-out: Activity
# [9] = tested on: NCI-H460; assay: Growth inhibition of human NCI-H460 cells assessed as cell growth at 10 uM incubated for 48 hrs by sulforhodamine B assay relative to control; settings: NCI-H460, 48 h, read-out: Activity
# [10] = tested on: HCC 2998; assay: Growth inhibition of human HCC2998 cells assessed as cell growth at 10 uM incubated for 48 hrs by sulforhodamine B assay relative to control; settings: HCC 2998, 48 h, read-out: Activity
# [11] = tested on: HCT-116; assay: Growth inhibition of human HCT116 cells assessed as cell growth at 10 uM incubated for 48 hrs by sulforhodamine B assay relative to control; settings: HCT-116, 48 h, read-out: Activity
# [12] = tested on: HCT-15; assay: Growth inhibition of human HCT15 cells assessed as cell growth at 10 uM incubated for 48 hrs by sulforhodamine B assay relative to control; settings: HCT-15, 48 h, read-out: Activity
# [13] = tested on: SF-295; assay: Growth inhibition of human SF295 cells assessed as cell growth at 10 uM incubated for 48 hrs by sulforhodamine B assay relative to control; settings: SF-295, 48 h, read-out: Activity
# [14] = tested on: SF-539; assay: Growth inhibition of human SF539 cells assessed as cell growth at 10 uM incubated for 48 hrs by sulforhodamine B assay relative to control; settings: SF-539, 48 h, read-out: Activity
# [15] = tested on: SNB-75; assay: Growth inhibition of human SNB75 cells assessed as cell growth at 10 uM incubated for 48 hrs by sulforhodamine B assay relative to control; settings: SNB-75, 48 h, read-out: Activity
# [16] = tested on: U-251; assay: Growth inhibition of human U251 cells assessed as cell growth at 10 uM incubated for 48 hrs by sulforhodamine B assay relative to control; settings: U-251, 48 h, read-out: Activity
# [17] = tested on: LOX IMVI; assay: Growth inhibition of human LOXIMVI cells assessed as cell growth at 10 uM incubated for 48 hrs by sulforhodamine B assay relative to control; settings: read-out: Activity
# [18] = tested on: MDA-MB-435; assay: Growth inhibition of human MDA-MB-435 cells assessed as cell growth at 10 uM incubated for 48 hrs by sulforhodamine B assay relative to control; settings: MDA-MB-435, 48 h, read-out: Activity
# [19] = tested on: SK-MEL-5; assay: Growth inhibition of human SK-MEL-5 cells assessed as cell growth at 10 uM incubated for 48 hrs by sulforhodamine B assay relative to control; settings: SK-MEL-5, 48 h, read-out: Activity
# [20] = tested on: UACC-257; assay: Growth inhibition of human UACC257 cells assessed as cell growth at 10 uM incubated for 48 hrs by sulforhodamine B assay relative to control; settings: UACC-257, 48 h, read-out: Activity
# [21] = tested on: UACC-62; assay: Growth inhibition of human UACC62 cells assessed as cell growth at 10 uM incubated for 48 hrs by sulforhodamine B assay relative to control; settings: UACC-62, 48 h, read-out: Activity
# [22] = tested on: IGROV-1; assay: Growth inhibition of human IGROV1 cells assessed as cell growth at 10 uM incubated for 48 hrs by sulforhodamine B assay relative to control; settings: IGROV-1, 48 h, read-out: Activity
# [23] = tested on: OVCAR-4; assay: Growth inhibition of human OVCAR4 cells assessed as cell growth at 10 uM incubated for 48 hrs by sulforhodamine B assay relative to control; settings: OVCAR-4, 48 h, read-out: Activity
# [24] = tested on: OVCAR-5; assay: Growth inhibition of human OVCAR5 cells assessed as cell growth at 10 uM incubated for 48 hrs by sulforhodamine B assay relative to control; settings: OVCAR-5, 48 h, read-out: Activity
# [25] = tested on: OVCAR-8; assay: Growth inhibition of human OVCAR8 cells assessed as cell growth at 10 uM incubated for 48 hrs by sulforhodamine B assay relative to control; settings: OVCAR-8, 48 h, read-out: Activity
# [26] = tested on: SK-OV-3; assay: Growth inhibition of human SKOV3 cells assessed as cell growth at 10 uM incubated for 48 hrs by sulforhodamine B assay relative to control; settings: SK-OV-3, 48 h, read-out: Activity
# [27] = tested on: CAKI-1; assay: Growth inhibition of human Caki1 cells assessed as cell growth at 10 uM incubated for 48 hrs by sulforhodamine B assay relative to control; settings: CAKI-1, 48 h, read-out: Activity
# [28] = tested on: UO-31; assay: Growth inhibition of human UO31 cells assessed as cell growth at 10 uM incubated for 48 hrs by sulforhodamine B assay relative to control; settings: UO-31, 48 h, read-out: Activity
# [29] = tested on: DU-145; assay: Growth inhibition of human DU145 cells assessed as cell growth at 10 uM incubated for 48 hrs by sulforhodamine B assay relative to control; settings: DU-145, 48 h, read-out: Activity
# [30] = tested on: MDA-MB-231; assay: Growth inhibition of human MDA-MB-231 cells assessed as cell growth at 10 uM incubated for 48 hrs by sulforhodamine B assay relative to control; settings: MDA-MB-231, 48 h, read-out: Activity
# [31] = tested on: T47D; assay: Growth inhibition of human T47D cells assessed as cell growth at 10 uM incubated for 48 hrs by sulforhodamine B assay relative to control; settings: read-out: Activity
# [32] = tested on: MDA-MB-468; assay: Growth inhibition of human MDA-MB-468 cells assessed as cell growth at 10 uM incubated for 48 hrs by sulforhodamine B assay relative to control; settings: MDA-MB-468, 48 h, read-out: Activity
Structure (SMILES),growth at 10 µM [1],growth at 10 µM [2],growth at 10 µM [3],growth at 10 µM [4],growth at 10 µM [5],growth at 10 µM [6],growth at 10 µM [7],growth at 10 µM [8],growth at 10 µM [9],growth at 10 µM [10],growth at 10 µM [11],growth at 10 µM [12],growth at 10 µM [13],growth at 10 µM [14],growth at 10 µM [15],growth at 10 µM [16],growth at 10 µM [17],growth at 10 µM [18],growth at 10 µM [19],growth at 10 µM [20],also measured
COc1cc(Cl)cc(-c2nn(-c3cccc(NC(=O)c4cccc(C(F)(F)F)c4)c3)cc2-c2ccncc2)c1,42.3%,26%,29%,31.5%,29.1%,71.6%,69%,78.6%,41.1%,54.6%,34.1%,33.2%,37.9%,64.2%,53.9%,49.2%,51.7%,65.6%,70.7%,68.7%,growth at 10 µM [21]: 74.5%; growth at 10 µM [22]: 80.7%; growth at 10 µM [23]: 71.8%; growth at 10 µM [24]: 84%; growth at 10 µM [25]: 42%; growth at 10 µM [26]: 81.6%; growth at 10 µM [27]: 54%; growth at 10 µM [28]: 37.2%; growth at 10 µM [29]: 83.8%; growth at 10 µM [30]: 21.4%; growth at 10 µM [31]: 36.6%; growth at 10 µM [32]: 47%
O=C(Nc1cccc(-n2cc(-c3ccncc3)c(-c3cc(O)cc(Cl)c3)n2)c1)c1ccc(N2CCOCC2)c(C(F)(F)F)c1,13.1%,-15.5%,-29.7%,-3.77%,-12.4%,-2.19%,94.7%,43.5%,-26.1%,-3.65%,12.7%,6.25%,-35.4%,2.4%,23.1%,-9.64%,-48.7%,23%,32.2%,9.38%,growth at 10 µM [21]: 10.8%; growth at 10 µM [22]: 44.3%; growth at 10 µM [23]: 77.1%; growth at 10 µM [24]: 81.4%; growth at 10 µM [25]: 22.7%; growth at 10 µM [26]: 50.7%; growth at 10 µM [27]: 14.8%; growth at 10 µM [28]: 3.98%; growth at 10 µM [29]: 38%; growth at 10 µM [30]: -48%; growth at 10 µM [31]: 29.3%; growth at 10 µM [32]: 26%

# Reference: ChEMBL document CHEMBL4308841, “Synthesis, in vitro antiproliferative activity, and kinase inhibitory effects of pyrazole-containing diarylureas and diarylamides” (Eur J Med Chem, 2018)
